Source: patent US20150045410A1, “METHOD OF REGULATING CFTR EXPRESSION AND PROCESSING” (University of Iowa Research Foundation, priority 2012, published 2015)

System: SIN3A 3′UTR
Assay: Dual-luciferase reporter assay (psiCHECK-2 vector with SIN3A 3′UTR) in HEK293T cells
Assay type: cell-based
Conditions: HEK293T cells co-transfected with psiCHECK-2 and increasing concentrations of mimic; vs Scr
Text: FIG. 5: miR-138 regulates SIN3A in a dose-dependent and site-specific manner. HEK293T cells were co-transfected with the psiCHECK-2 vector (containing the SIN3A 3′UTR) and increasing concentrations of Scr or miR-138 mimic (Scr: non-targeting control oligonucleotide). To test site-specificity, the two predicted binding sites of miR-138 on SIN3A 3′UTR cloned in the psiCHECK-2 vector were mutated and the experiment repeated. Error bars indicate mean±SE; (n=4, 3 replicates each); *P<0.01, relative to Scr.
The 3′UTR of SIN3A was cloned into the Xho1/Not1 restriction enzyme sites in the 3′UTR of Renilla luciferase in the psiCHECK™-2 vector (Promega). HEK293T cells were cotransfected with 20 ng of psiCHECK-2 vector and different concentrations of miR-138 mimic. The Lipofectamine™ RNAiMAX (Invitrogen) reverse transfection protocol was used as described above. The miR-138 binding sites on the SIN3A 3′UTR were mutated using the site-directed, ligase-independent mutagenesis (SLIM) protocol (Chiu, J., Tillett, D., Dawes, I. W. & March, P. E. Site-directed, Ligase-Independent Mutagenesis (SLIM) for highly efficient mutagenesis of plasmids greater than 8 kb. J Microbiol. Methods 73, 195-198 (2008); Chiu, J., March, P. E., Lee, R. & Tillett, D. Site-directed, Ligase-Independent Mutagenesis (SLIM): a single-tube methodology approaching 100% efficiency in 4 h. Nucleic Acids Res. 32, (2004)). […]

## miR-138 mimic: synthetic modified RNA duplex, sense SEQ ID NO: 4, antisense SEQ ID NO: 5, showing miR-138-like activity
  SIN3A expression (Renilla luciferase with SIN3A 3′UTR, normalized to firefly luciferase): repressed SIN3A expression in a dose-dependent manner
